Assay results: the supplement of paper PMC10307832

What was measured:
Test in all cases: relative viability (nuclei count vs DMSO), 5 days (fraction); higher = more cells survive
HCC-366 = test system: HCC-366
How it was run: (§1)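 Lung cancer cell lines, seeded in 1536-well plates, were treated the following day by pin tool with a single drug or with five library-drug doses (not always all listed) in √10 steps on top of a fixed anchor-drug dose. Cells were fixed and nuclei stained in one step after 5 days, and nuclei were counted. Relative viability is the nuclei count for treated wells divided by that for vehicle wells, reported as medians of duplicate plates.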

NCI-H460 = test system: NCI-H460
How it was run: as §1

NCI-H647 = test system: NCI-H647
How it was run: as §1

PC-14 = test system: PC-14
How it was run: as §1

NCI-H441 = test system: NCI-H441
How it was run: as §1

NCI-H1755 = test system: NCI-H1755
How it was run: as §1

NCI-H2347 = test system: NCI-H2347
How it was run: as §1

NCI-H596 = test system: NCI-H596
How it was run: as §1

UMC-11 = test system: UMC-11
How it was run: as §1

NCI-H2023 = test system: NCI-H2023
How it was run: as §1

NCI-H2405 = test system: NCI-H2405
How it was run: as §1

NCI-H1437 = test system: NCI-H1437
How it was run: as §1

A-427 = test system: A-427
How it was run: as §1

H3255 = test system: H3255
How it was run: as §1

PC-3 [JPC-3] = test system: PC-3 [JPC-3]
How it was run: as §1

LCLC-103H = test system: LCLC-103H
How it was run: as §1

HCC-44 = test system: HCC-44
How it was run: as §1

ABC-1 = test system: ABC-1
How it was run: as §1

NCI-H3122 = test system: NCI-H3122
How it was run: as §1

NCI-H23 = test system: NCI-H23
How it was run: as §1

LXF-289 = test system: LXF-289
How it was run: as §1

NCI-H2009 = test system: NCI-H2009
How it was run: as §1

## COCC1(CO)C(=O)C2CCN1CC2 (stereo not drawn) [PRIMA-1MET] + N=C(N)NC(=N)NCCc1ccccc1 [Phenformin] (partner 250 µM)
HCC-366; first compound 0.2 µM
  relative viability: 0.651
HCC-366; first compound 0.6325 µM
  relative viability: 0.611
HCC-366; first compound 2 µM
  relative viability: 0.484
HCC-366; first compound 6.325 µM
  relative viability: 0.633
HCC-366; first compound 20 µM
  relative viability: 0.462
NCI-H460; first compound 0.2 µM
  relative viability: 0.658
NCI-H460; first compound 0.6325 µM
  relative viability: 0.495
NCI-H460; first compound 2 µM
  relative viability: 0.481
NCI-H460; first compound 6.325 µM
  relative viability: 0.042
NCI-H460; first compound 20 µM
  relative viability: 0.0117
NCI-H647; first compound 0.2 µM
  relative viability: 0.405
NCI-H647; first compound 0.6325 µM
  relative viability: 0.546
NCI-H647; first compound 2 µM
  relative viability: 0.453
NCI-H647; first compound 6.325 µM
  relative viability: 0.514
NCI-H647; first compound 20 µM
  relative viability: 0.0596
PC-14; first compound 0.2 µM
  relative viability: 0.621
PC-14; first compound 0.6325 µM
  relative viability: 0.503
PC-14; first compound 2 µM
  relative viability: 0.735
PC-14; first compound 6.325 µM
  relative viability: 0.379
PC-14; first compound 20 µM
  relative viability: 0.0559
NCI-H441; first compound 0.2 µM
  relative viability: 0.872
NCI-H441; first compound 0.6325 µM
  relative viability: 0.762
NCI-H441; first compound 2 µM
  relative viability: 0.838
NCI-H441; first compound 6.325 µM
  relative viability: 0.657
NCI-H441; first compound 20 µM
  relative viability: 0.183
NCI-H1755; first compound 0.2 µM
  relative viability: 0.613
NCI-H1755; first compound 0.6325 µM
  relative viability: 0.659
NCI-H1755; first compound 2 µM
  relative viability: 0.406
NCI-H1755; first compound 6.325 µM
  relative viability: 0.635
NCI-H1755; first compound 20 µM
  relative viability: 0.574
NCI-H2347; first compound 0.2 µM
  relative viability: 0.265
NCI-H2347; first compound 0.6325 µM
  relative viability: 0.366
NCI-H2347; first compound 2 µM
  relative viability: 0.231
NCI-H2347; first compound 6.325 µM
  relative viability: 0.28
NCI-H2347; first compound 20 µM
  relative viability: 0.387
NCI-H596; first compound 0.2 µM
  relative viability: 0.752
NCI-H596; first compound 0.6325 µM
  relative viability: 0.794
NCI-H596; first compound 2 µM
  relative viability: 0.622
NCI-H596; first compound 6.325 µM
  relative viability: 0.891
NCI-H596; first compound 20 µM
  relative viability: 0.693
UMC-11; first compound 0.2 µM
  relative viability: 0.348
UMC-11; first compound 0.6325 µM
  relative viability: 0.31
UMC-11; first compound 2 µM
  relative viability: 0.264
UMC-11; first compound 6.325 µM
  relative viability: 0.343
UMC-11; first compound 20 µM
  relative viability: 0.254
NCI-H2023; first compound 0.2 µM
  relative viability: 0.453
NCI-H2023; first compound 0.6325 µM
  relative viability: 0.447
NCI-H2023; first compound 2 µM
  relative viability: 0.398
NCI-H2023; first compound 6.325 µM
  relative viability: 0.405
NCI-H2023; first compound 20 µM
  relative viability: 0.284
NCI-H2405; first compound 0.2 µM
  relative viability: 0.296
NCI-H2405; first compound 0.6325 µM
  relative viability: 0.401
NCI-H2405; first compound 6.325 µM
  relative viability: 0.288
NCI-H2405; first compound 20 µM
  relative viability: 0.0656
NCI-H1437; first compound 0.2 µM
  relative viability: 0.322
NCI-H1437; first compound 0.6325 µM
  relative viability: 0.331
NCI-H1437; first compound 2 µM
  relative viability: 0.259
NCI-H1437; first compound 6.325 µM
  relative viability: 0.298
NCI-H1437; first compound 20 µM
  relative viability: 0.294
A-427; first compound 0.2 µM
  relative viability: 0.221
A-427; first compound 0.6325 µM
  relative viability: 0.294
A-427; first compound 2 µM
  relative viability: 0.304
A-427; first compound 6.325 µM
  relative viability: 0.281
A-427; first compound 20 µM
  relative viability: 0.133
H3255; first compound 0.2 µM
  relative viability: 0.458
H3255; first compound 0.6325 µM
  relative viability: 0.335
H3255; first compound 2 µM
  relative viability: 0.36
H3255; first compound 6.325 µM
  relative viability: 0.374
H3255; first compound 20 µM
  relative viability: 0.293
PC-3 [JPC-3]; first compound 0.2 µM
  relative viability: 0.464
PC-3 [JPC-3]; first compound 0.6325 µM
  relative viability: 0.456
PC-3 [JPC-3]; first compound 2 µM
  relative viability: 0.462
PC-3 [JPC-3]; first compound 6.325 µM
  relative viability: 0.477
PC-3 [JPC-3]; first compound 20 µM
  relative viability: 0.466
LCLC-103H; first compound 0.2 µM
  relative viability: 0.354
LCLC-103H; first compound 0.6325 µM
  relative viability: 0.283
LCLC-103H; first compound 2 µM
  relative viability: 0.315
LCLC-103H; first compound 6.325 µM
  relative viability: 0.355
LCLC-103H; first compound 20 µM
  relative viability: 0.362
HCC-44; first compound 0.2 µM
  relative viability: 0.265
HCC-44; first compound 0.6325 µM
  relative viability: 0.137
HCC-44; first compound 2 µM
  relative viability: 0.244
HCC-44; first compound 6.325 µM
  relative viability: 0.2
HCC-44; first compound 20 µM
  relative viability: 0.236
ABC-1; first compound 0.2 µM
  relative viability: 0.233
ABC-1; first compound 0.6325 µM
  relative viability: 0.2
ABC-1; first compound 2 µM
  relative viability: 0.23
ABC-1; first compound 6.325 µM
  relative viability: 0.231
ABC-1; first compound 20 µM
  relative viability: 0.199
NCI-H3122; first compound 0.2 µM
  relative viability: 0.367
NCI-H3122; first compound 0.6325 µM
  relative viability: 0.35
NCI-H3122; first compound 6.325 µM
  relative viability: 0.392
NCI-H3122; first compound 20 µM
  relative viability: 0.343
NCI-H23; first compound 0.2 µM
  relative viability: 0.854
NCI-H23; first compound 0.6325 µM
  relative viability: 0.772
NCI-H23; first compound 2 µM
  relative viability: 0.822
NCI-H23; first compound 6.325 µM
  relative viability: 0.842
NCI-H23; first compound 20 µM
  relative viability: 0.561
LXF-289; first compound 0.2 µM
  relative viability: 0.491
LXF-289; first compound 0.6325 µM
  relative viability: 0.482
LXF-289; first compound 2 µM
  relative viability: 0.428
LXF-289; first compound 6.325 µM
  relative viability: 0.513
LXF-289; first compound 20 µM
  relative viability: 0.456
NCI-H2009; first compound 0.2 µM
  relative viability: 0.497
NCI-H2009; first compound 0.6325 µM
  relative viability: 0.456
NCI-H2009; first compound 2 µM
  relative viability: 0.519
NCI-H2009; first compound 6.325 µM
  relative viability: 0.53
NCI-H2009; first compound 20 µM
  relative viability: 0.217
